Test results: PubChem BioAssay AID330 (DTP/NCI, 2004)
Where “and” joins values, the source holds several entries; their conditions need not be identical. Equal values may be shown once. Toxic doses and inconclusive results are not listed. The calls were made as follows: active = survival T/C of 150% or more; inactive = T/C below 125% in these data.

Tested on: P388 leukemia ip, CD2F1 mice, survival T/C
Assay: NCI In Vivo Anticancer Drug Screen. Data for tumor model P388 Leukemia (intraperitoneal) in CD2F1 (CDF1) mice
Settings: endpoint: median survival time, higher = longer survival
Method in brief: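 Mice carrying the transplanted tumor received test compound or vehicle. Survival was recorded in each group, and the value is the treated-group measurement divided by that of the vehicle-treated control group.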

[1] = dose: 50.0 mg/kg/injection, schedule: Q01DX009 (ip), vehicle: saline with Tween-80
[2] = dose: 200.0 mg/kg/injection, schedule: Q04DX003 (ip), vehicle: saline with Tween-80
[3] = dose: 400.0 mg/kg/injection, schedule: Q04DX003 (ip), vehicle: saline with Tween-80
[4] = dose: 60.0 mg/kg/injection, schedule: Q01DX005 (ip), vehicle: saline with Tween-80
[5] = dose: 120.0 mg/kg/injection, schedule: Q01DX005 (ip), vehicle: saline with Tween-80
[6] = dose: 240.0 mg/kg/injection, schedule: Q01DX005 (ip), vehicle: saline with Tween-80

Measured: T/C

CN1C(=O)N(C2CCCCC2)C(=O)C(C)(CN2CCCCC2)C1=O (stereo unspecified)
inactive: dose: 12.5 mg/kg/injection, schedule: Q01DX009 (ip), vehicle: saline with Tween-80 102 % of control | dose: 25.0 mg/kg/injection, schedule: Q01DX009 (ip), vehicle: saline with Tween-80 100 % of control | [1] 102 % of control | dose: 50.0 mg/kg/injection, schedule: Q01DX009 (sc), vehicle: saline with Tween-80 100 % of control | dose: 200.0 mg/kg/injection, schedule: Q01DX009 (sc), vehicle: saline with Tween-80 108 % of control

C=CCOP1(c2ccccc2)(c2ccccc2)NC(c2ccccc2)(c2ccccc2)C(C(=O)OC)=C1C(=O)OC
inactive: dose: 50.0 mg/kg/injection, schedule: Q01DX005 (ip), vehicle: Klucel (hydroxypropylcellulose) (HPC) 90 % of control | dose: 100.0 mg/kg/injection, schedule: Q01DX005 (ip), vehicle: Klucel (hydroxypropylcellulose) (HPC) 91 % of control | dose: 200.0 mg/kg/injection, schedule: Q01DX005 (ip), vehicle: Klucel (hydroxypropylcellulose) (HPC) 92 % of control

S=c1ssc2ccccc12
inactive: dose: 100.0 mg/kg/injection, schedule: Q04DX003 (ip), vehicle: saline with Tween-80 100 % of control | [2] 109 % of control | [3] 109 % of control

c1ncn(Cn2cncn2)n1
inactive: dose: 60.0 mg/kg/injection, schedule: Q01DX005 (ip), vehicle: Klucel (hydroxypropylcellulose) (HPC) 105 % of control | dose: 120.0 mg/kg/injection, schedule: Q01DX005 (ip), vehicle: Klucel (hydroxypropylcellulose) (HPC) 107 % of control | dose: 240.0 mg/kg/injection, schedule: Q01DX005 (ip), vehicle: Klucel (hydroxypropylcellulose) (HPC) 101 % of control

N#C/C(=C\c1ccccn1)c1ccc(Cl)cc1
inactive: dose: 18.75 mg/kg/injection, schedule: Q01DX009 (none), vehicle: saline 100 % of control | dose: 37.5 mg/kg/injection, schedule: Q01DX009 (none), vehicle: saline 99 % of control | dose: 75.0 mg/kg/injection, schedule: Q01DX009 (none), vehicle: saline 90 % of control

COc1cc(C=NCc2ccccc2)cc(OC)c1O
inactive: dose: 50.0 mg/kg/injection, schedule: Q04DX003 (ip), vehicle: saline with Tween-80 103 % of control | [2] 97 % of control | [3] 97 % of control

NC(=O)c1cccn1Cc1ccccc1SSc1ccccc1Cn1cccc1C(N)=O
inactive: [4] 91 % of control | [5] 87 % of control

CC(=O)OC1CC2(C)C(c3ccoc3)CC3OC32C2(C)C(=O)C(O)=C3C(C)(C)C(=O)C=CC3(C)C12 (stereo unspecified)
inactive: dose: 3.0 mg/kg/injection, schedule: Q01DX009 (ip), vehicle: Klucel (hydroxypropylcellulose) (HPC) 96 % of control | dose: 6.0 mg/kg/injection, schedule: Q01DX009 (ip), vehicle: Klucel (hydroxypropylcellulose) (HPC) 100 % of control | dose: 12.0 mg/kg/injection, schedule: Q01DX009 (ip), vehicle: Klucel (hydroxypropylcellulose) (HPC) 100 % of control | dose: 24.0 mg/kg/injection, schedule: Q01DX009 (ip), vehicle: Klucel (hydroxypropylcellulose) (HPC) 99 % of control

CN(C)c1ccc(C(=O)C2(O)CCCC(C)(C)C2)cc1 (stereo unspecified)
inactive: dose: 100.0 mg/kg/injection, schedule: Q01DX001 (ip), vehicle: Klucel (hydroxypropylcellulose) (HPC) 103 % of control | dose: 200.0 mg/kg/injection, schedule: Q01DX001 (ip), vehicle: Klucel (hydroxypropylcellulose) (HPC) 101 % of control | dose: 400.0 mg/kg/injection, schedule: Q01DX001 (ip), vehicle: Klucel (hydroxypropylcellulose) (HPC) 101 % of control

COc1ccc2c(c1C)CN1CCc3cc4c(cc3C1=C2)OCO4
inactive: [4] 99 % of control | [5] 117 % of control | [6] 100 % of control

c1cc(-n2nnc3cnccc32)ccn1
inactive: dose: 3.12 mg/kg/injection, schedule: Q01DX009 (ip), vehicle: saline 91 % of control | dose: 6.25 mg/kg/injection, schedule: Q01DX009 (ip), vehicle: saline 100 % of control | dose: 6.25 mg/kg/injection, schedule: Q04DX003 (ip), vehicle: saline 109 % of control | dose: 12.5 mg/kg/injection, schedule: Q01DX009 (ip), vehicle: saline 98 % of control | dose: 12.5 mg/kg/injection, schedule: Q04DX003 (ip), vehicle: saline 104 % of control | dose: 25.0 mg/kg/injection, schedule: Q01DX009 (ip), vehicle: suspension in saline 109 % of control | dose: 25.0 mg/kg/injection, schedule: Q04DX003 (ip), vehicle: saline 100 % of control

C[CH2][Sn]([CH2]C)([n]1c(C)nc2ccccc21)[n]1c(C)nc2ccccc21
inactive: dose: 1.56 mg/kg/injection, schedule: Q01DX005 (ip), vehicle: Klucel (hydroxypropylcellulose) (HPC) 110 % of control | dose: 3.12 mg/kg/injection, schedule: Q01DX005 (ip), vehicle: Klucel (hydroxypropylcellulose) (HPC) 122 % of control | dose: 6.25 mg/kg/injection, schedule: Q01DX005 (ip), vehicle: Klucel (hydroxypropylcellulose) (HPC) 122 % of control

NS(=O)(=O)c1cc([N+](=O)[O-])ccc1Cl
inactive: [1] 100 % of control | dose: 100.0 mg/kg/injection, schedule: Q01DX009 (ip), vehicle: saline with Tween-80 100 % of control | dose: 200.0 mg/kg/injection, schedule: Q01DX009 (ip), vehicle: saline with Tween-80 94 % of control

Fc1ccc(NC(=S)Nc2ccccc2C(F)(F)F)cc1
inactive: dose: 50.0 mg/kg/injection, schedule: Q01DX009 (ip), vehicle: Klucel (hydroxypropylcellulose) (HPC) 92 % of control | dose: 100.0 mg/kg/injection, schedule: Q01DX009 (ip), vehicle: Klucel (hydroxypropylcellulose) (HPC) 92 % of control | dose: 200.0 mg/kg/injection, schedule: Q01DX009 (ip), vehicle: Klucel (hydroxypropylcellulose) (HPC) 100 % of control

O=C(CNC(=O)Nc1ccc(Cl)c(Cl)c1)N/N=C/c1c(O)ccc2ccccc12
inactive: dose: 3.75 mg/kg/injection, schedule: Q01DX005 (ip), vehicle: saline with Tween-80 96 % of control | dose: 7.5 mg/kg/injection, schedule: Q01DX005 (ip), vehicle: saline with Tween-80 102 % of control | dose: 15.0 mg/kg/injection, schedule: Q01DX005 (ip), vehicle: saline with Tween-80 88 % of control and 94 % of control | [6] 100 % of control

CCOC(=O)Nc1cc(Cl)c2nnn(C(=O)OCC)c2n1
inactive: dose: 6.25 mg/kg/injection, schedule: Q01DX009 (ip), vehicle: other 105 % of control | dose: 11.0 mg/kg/injection, schedule: Q01DX009 (ip), vehicle: other 103 % of control | dose: 12.5 mg/kg/injection, schedule: Q01DX009 (ip), vehicle: other 115 % of control | dose: 16.5 mg/kg/injection, schedule: Q01DX009 (ip), vehicle: other 106 % of control | dose: 25.0 mg/kg/injection, schedule: Q01DX009 (ip), vehicle: other 106 % of control | dose: 37.5 mg/kg/injection, schedule: Q01DX009 (ip), vehicle: other 112 % of control | dose: 50.0 mg/kg/injection, schedule: Q01DX009 (ip), vehicle: other 122 % of control | dose: 100.0 mg/kg/injection, schedule: Q01DX009 (ip), vehicle: other 115 % of control

COc1ccc2ncc(C)c(CO)c2c1
inactive: dose: 50.0 mg/kg/injection, schedule: Q01DX005 (ip), vehicle: saline with Tween-80 116 % of control | dose: 100.0 mg/kg/injection, schedule: Q01DX005 (ip), vehicle: saline with Tween-80 102 % of control | dose: 200.0 mg/kg/injection, schedule: Q01DX005 (ip), vehicle: saline with Tween-80 98 % of control

CC(C)=CCOc1ccc2ccc(=O)oc2c1
inactive: dose: 5.0 mg/kg/injection, schedule: Q01DX009 (ip), vehicle: saline with Tween-80 106 % of control | dose: 10.0 mg/kg/injection, schedule: Q01DX009 (ip), vehicle: saline with Tween-80 108 % of control | dose: 20.0 mg/kg/injection, schedule: Q01DX009 (ip), vehicle: saline with Tween-80 103 % of control
